This is an account of results in patent US12377083B2 (WUHAN LL SCIENCE AND TECHNOLOGY DEVELOPMENT CO., LTD., priority 2019, dated 2025).

Series [1] has as its target hLPAR1 (human lysophosphatidic acid receptor 1) (Homo sapiens, UniProt Q92633). The series can be described thus: FLIPR assay of intracellular calcium increase induced by activation of hLPAR1 expressed in CHO-K1 cells. Type of series: cell-based. The note with it: CHO-K1 cells expressing hLPAR1, agonist oleoyl-L-α-lysophosphatidic acid 1 μM; read-out: LPAR1 IC50. A digest of the protocol: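 CHO-K1 cells expressing hLPAR1 were loaded with Fluo-4 AM for 1.0 h at 37° C, then preincubated 30 min at room temperature with compound. Oleoyl-LPA was added at 1 μM final, and calcium fluorescence was recorded by FLIPR for 2 min at 1-s intervals to assess antagonism.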
(A change in cytosolic calcium serves as a functional read-out for many receptors and channels.)

In series [2] the test system is A2058 (human melanoma cells). The series can be described thus: A2058 cell scratch (migration) assay with LPA. In kind it is cell-based. The conditions noted are these: 10 μM LPA, scratch area at 24 h.
A further series deals with HepG2 cells. The series can be described thus: In vitro cytotoxicity assay in HepG2 cells, CCK-8 method. Type of series: cell-based. The note with it: 48 h. Put shortly:
(§1)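 Cells plated at 50,000/well, grown overnight to 80-90% confluence, then given fresh medium with graded compound or DMSO for 48 h at 37°C, 5% CO2. After PBS washes, CCK-8 added for 1.5 h at 37°C in the dark; OD450 read and CC50 calculated.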

Test in series [3]: as above
Type of series: cell-based. The note with it: human. A digest of the protocol: as §1

Series [4] is described as follows: In vitro metabolic stability, human liver microsomes. Type of series: in vitro ADME. The conditions noted are these: 1 mg/mL liver microsome protein, 37° C., read-out: Metabolism in human liver microsome T½ min. As to the method:
(§2) The in vitro metabolic stability of the compounds disclosed herein was determined through incubation of liver microsomes of various species. A proper amount of test compound was added into a liver microsome reaction system (1 mg/mL liver microsome protein, 25 U/mL glucose-6 phosphate dehydrogenase, 1 mM NADP, 6 mM D-glucose 6-phosphate and 5 mM MgCl2), and then the mixture was incubated in a water bath kettle at 37° C. to start reaction. At each time point, 100 μL of the reaction system was added into a centrifuge tube containing 400 μL of internal standard working solution (containing a 200 ng/mL solution of dexamethasone, diclofenac, tolbutamide and labetalol in acetonitrile) precooled at 0° C. so as to stop the reaction, and the mixture was then centrifuged at 10,000 g for 10 min at 4° C. The supernatant was collected for LC-MS assay so as to obtain the values of in vitro metabolic half-life of the test compounds in liver microsomes of various species.
On the technique in general: Liver microsomes are vesicles of endoplasmic reticulum, rich in cytochrome P450 enzymes.

Series [5] is described as follows: In vitro metabolic stability, rat liver microsomes. In kind it is in vitro ADME. The conditions noted are these: 1 mg/mL liver microsome protein, 37° C., read-out: Metabolism in rat liver microsome T½ min. Here is the method:
as §2

A short description of series [6]: In vitro metabolic stability, mouse liver microsomes. Type of series: in vitro ADME. The note with it: 1 mg/mL liver microsome protein, 37° C., read-out: Metabolism in mouse liver microsome T½ min. Here is the method:
as §2

Molecules are shown by their SMILES.

Sequence of hLPAR1 (human lysophosphatidic acid receptor 1) (Q92633 whole entry): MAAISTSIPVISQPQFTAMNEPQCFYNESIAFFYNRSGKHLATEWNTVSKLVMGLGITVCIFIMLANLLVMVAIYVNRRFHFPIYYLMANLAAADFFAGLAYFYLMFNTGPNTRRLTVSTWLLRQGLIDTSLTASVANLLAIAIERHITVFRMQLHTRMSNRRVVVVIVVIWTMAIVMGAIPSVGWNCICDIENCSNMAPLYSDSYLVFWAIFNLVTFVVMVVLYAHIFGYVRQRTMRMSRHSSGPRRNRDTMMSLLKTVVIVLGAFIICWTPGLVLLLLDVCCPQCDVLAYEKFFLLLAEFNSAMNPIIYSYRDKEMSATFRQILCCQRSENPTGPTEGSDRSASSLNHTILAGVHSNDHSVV

`CN(C(=O)OCc1c(-c2ccc(O[C@H]3CCC[C@H](C(=O)O)C3)cn2)ncn1C)C1CCCC1` (racemic) [Compound 19, (+/−)-(1S,3S)-3-((6-(5-(((cyclopentyl(methyl)carbamoyl)oxy)methyl)-1-methyl-1H-imidazol-4-yl)pyridin-3-yl)oxy)cyclohexane-1-carboxylic Acid]: the half-maximal inhibitory concentration (IC50) (usually the concentration at which inhibition is half-maximal) in series [1] was in the range of 0.3 to 10 µM. Further, the “Cell migration inhibition rate (%)” value in series [2] is “C (C: 0-30%)”. The CC50 (as a rule, the concentration that lowers cell viability or growth by half) in the series on HepG2 cells is > 200 µM.

As for `Cc1nc(-c2onc(C)c2COC(=O)N(C)C2CCCC2)ccc1O[C@H]1CCC[C@H](C(=O)O)C1` (racemic) [Compound 36], in series [1], the IC50 is < 0.05 µM. In series [2], the “Cell migration inhibition rate (%)” value is given as “A (A: 50-70%)”. In series [3], the CC50 at 48 h was > 200 µM. For the same compound, the half-life in series [4] was 145 min; in series [5], 28.4 min; in series [6], 5.66 h.

Consider `CN(C(=O)OCc1ocnc1-c1ccc(O[C@H]2CCC[C@H](C(=O)O)C2)cn1)C1CCCC1` (racemic) [Compound 14], for which, in series [1], the concentration for half-maximal inhibition (IC50) lay within 0.3 to 10 µM. Also, the “Cell migration inhibition rate (%)” value in series [2] is listed as “C (C: 0-30%)”. For the same compound, the cytotoxic concentration (CC50) at 48 h in series [3] is > 200 µM. In addition, the half-life in series [4] is > 30 min; in series [5], > 30 min; in series [6], > 0.5 h.

On to `CN(C(=O)OCc1ocnc1-c1ccc(O[C@H]2CCC[C@H](C(=O)O)C2)c(F)c1)C1CCCC1` (racemic) [Compound 15, (+/−)-(1S,3S)-3-(4-(5-(((cyclopentyl(methyl)carbamoyl)oxy)methyl)oxazol-4-yl)-2-fluorophenoxy)cyclohexane-1-carboxylic Acid], for which the IC50 in series [1] was 0.3 to 10 µM. In series [2], the “Cell migration inhibition rate (%)” value is “C (C: 0-30%)”. The 50% cytotoxic concentration (CC50) at 48 h in series [3] was > 200 µM. Also, the half-life is > 30 min in series [4], > 30 min in series [5] and > 0.5 h in series [6].

For `CN(C(=O)OCc1c(-c2ccc(O[C@H]3CCC[C@H](C(=O)O)C3)c(CF)n2)cnn1C)C1CCCC1` (racemic) [Compound 89], the IC50 in series [1] is 0.05 to 0.3 µM. For the same compound, the “Cell migration inhibition rate (%)” value in series [2] is listed as “A (A: 50-70%)”. Also, in series [3], the CC50 at 48 h worked out at 14.3 µM. The results for the half-life in series [4], in series [5] and in series [6] were 449 min, 57.5 min and 61.2 h, respectively.

As to `CN(C(=O)OCc1ocnc1-c1ccc(O[C@H]2CCC[C@H](C(=O)O)C2)cc1)C1CCCC1` (racemic) [Compound 8, (+/−)-(1S,3S)-3-(4-(5-(((cyclopentyl(methyl)carbamoyl)oxy)methyl)oxazol-4-yl)phenoxy)cyclohexane-1-carboxylic Acid], in series [1], the IC50 lay within 0.3 to 10 µM. For the same compound, the “Cell migration inhibition rate (%)” value in series [2] is “C (C: 0-30%)”. For the same compound, the CC50 at 48 h in series [3] is > 200 µM. The results for the half-life in series [4], in series [5] and in series [6] were > 30 min, > 30 min and > 0.5 h, respectively.

`CN(C(=O)OCc1c(-c2ccc(O[C@H]3CCC[C@H](C(=O)O)C3)c(C(F)F)n2)cnn1C)C1CCCC1` (racemic) [Compound 63, (+/−)-(1S,3S)-3-((6-(5-(((cyclopentyl(methyl)carbamoyl)oxy)methyl)-1-methyl-1H-pyrazol-4-yl)-2-(difluoromethyl)pyridin-3-yl)oxy)cyclohexane-1-carboxylic Acid]: the IC50 in series [1] was < 0.05 µM. Besides, in series [2], the “Cell migration inhibition rate (%)” value is reported as “B (B: 30-50%)”. Moreover, in series [3], the half-maximal cytotoxic concentration (CC50) at 48 h was > 200 µM. Besides, the half-life was 386 min in series [4], 44.9 min in series [5] and 8.96 h in series [6].

Turning to `CN(C(=O)OCc1c(-c2ccc(O[C@H]3CCC[C@H](C(=O)O)C3)c(F)n2)cnn1C)C1CCCC1` (racemic) [Compound 62, (+/−)-(1S,3S)-3-((6-(5-(((cyclopentyl(methyl)carbamoyl)oxy)methyl)-1-methyl-1H-pyrazol-4-yl)-2-fluoropyridin-3-yl)oxy)cyclohexane-1-carboxylic Acid], the concentration for half-maximal inhibition (IC50) in series [1] was < 0.05 µM. In series [2], the “Cell migration inhibition rate (%)” value is on record as “A (A: 50-70%)”. For the same compound, the CC50 at 48 h in series [3] was > 200 µM. Further, the half-life in series [4] is > 30 min; in series [5], ~30 min; in series [6], > 0.5 h.

Take `Cc1onc(-c2ccc(O[C@H]3CCC[C@H](C(=O)O)C3)cc2)c1COC(=O)N(C)C1CCCC1` (racemic) [Compound 7, (+/−)-(1S,3S)-3-(4-(4-(((cyclopentyl(methyl)carbamoyl)oxy)methyl)-5-methylisoxazol-3-yl)phenoxy)cyclohexane-1-carboxylic Acid]: the half-inhibitory concentration (IC50) in series [1] is < 0.05 µM. In series [2], the “Cell migration inhibition rate (%)” value was “A (A: 50-70%)”. In series [3], the CC50 at 48 h is > 200 µM. The half-life in series [4] turned out to be 109 min; in series [5], 2.81 min; in series [6], 2.48 h.

With `CN(C(=O)OCc1c(-c2ccc(O[C@H]3CCC[C@H](C(=O)O)C3)c(F)c2)cnn1C)C1CCCC1` (racemic) [Compound 20, (+/−)-(1S,3S)-3-(4-(5-(((cyclopentyl(methyl)carbamoyl)oxy)methyl)-1-methyl-1H-pyrazol-4-yl)-2-fluorophenoxy)cyclohexane-1-carboxylic Acid], the IC50 in series [1] is < 0.05 µM. For the same compound, in series [2], the “Cell migration inhibition rate (%)” value is “B (B: 30-50%)”. Besides, the cytotoxic concentration (CC50) at 48 h in series [3] is > 200 µM. For the same compound, the half-life is > 30 min in series [4], > 30 min in series [5] and > 0.5 h in series [6].

For the compound `CN(C(=O)OCc1c(-c2ccc(O[C@H]3CCC[C@H](C(=O)O)C3)c(C(F)(F)F)n2)cnn1C)C1CCCC1` (racemic) [Compound 13, (+/−)-(1S,3S)-3-((6-(5-(((cyclopentyl(methyl)carbamoyl)oxy)methyl)-1-methyl-1H-pyrazol-4-yl)-2-(trifluoromethyl)pyridin-3-yl)oxy)cyclohexane-1-carboxylic Acid], the IC50 in series [1] lay in the range of 0.05 to 0.3 µM. Further, in series [2], the “Cell migration inhibition rate (%)” value is reported as “B (B: 30-50%)”. In addition, the CC50 at 48 h in series [3] is > 200 µM. The results for the half-life in series [4], in series [5] and in series [6] were 68.8 min, 17.2 min and 3.55 h, respectively.
